# In ChEMBL document CHEMBL5357073, “Novel Heterocyclic PAD4 Inhibitors for Treating Multiple Diseases” (ACS Med Chem Lett, 2024):
# Target: Protein-arginine deiminase type-4 (Homo sapiens, UniProt Q9UM07)
# Experiment: Inhibition of human recombinant PAD4 using TSTGGRQGSHH peptide as substrate preincubated for 30 mins followed by substrate addition and measured after 90 mins by RapidFire mass spectroscopy analysis
# Protein-arginine deiminase type-4, sequence (Q9UM07 whole entry): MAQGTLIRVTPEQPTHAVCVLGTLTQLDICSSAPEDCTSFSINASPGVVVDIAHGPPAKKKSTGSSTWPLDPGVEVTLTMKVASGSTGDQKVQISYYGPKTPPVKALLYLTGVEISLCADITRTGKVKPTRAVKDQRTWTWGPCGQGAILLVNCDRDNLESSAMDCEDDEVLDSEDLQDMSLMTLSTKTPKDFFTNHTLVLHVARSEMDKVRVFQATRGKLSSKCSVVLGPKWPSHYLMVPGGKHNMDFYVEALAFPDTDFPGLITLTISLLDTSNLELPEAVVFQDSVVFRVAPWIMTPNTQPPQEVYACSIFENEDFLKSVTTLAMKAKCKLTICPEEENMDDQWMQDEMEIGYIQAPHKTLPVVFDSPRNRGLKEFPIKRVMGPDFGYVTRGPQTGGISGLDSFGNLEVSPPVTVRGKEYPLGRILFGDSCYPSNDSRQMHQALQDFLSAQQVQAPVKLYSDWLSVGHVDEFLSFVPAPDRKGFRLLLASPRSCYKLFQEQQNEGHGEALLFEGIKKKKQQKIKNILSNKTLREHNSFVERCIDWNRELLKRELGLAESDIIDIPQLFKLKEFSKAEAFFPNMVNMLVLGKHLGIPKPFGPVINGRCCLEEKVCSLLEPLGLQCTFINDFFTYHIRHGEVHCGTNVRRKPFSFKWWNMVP
row,Structure (SMILES),IC50 [nM]
1,Cn1c(-c2cc3cccc(OCCn4cncn4)c3n2CC2CC2)nc2cc3c(cc21)CCN(CC(N)CF)C3=O (stereo unspecified),≤ 10
2,Cn1c(-c2cc3cccc(OCCn4ccnc4)c3n2CC2CC2)nc2cc3c(cc21)CCN(CC(N)CF)C3=O (stereo unspecified),≤ 10
3,Cn1c(-c2cc3cccc(OCCc4cnoc4)c3n2CC2CC2)nc2cc3c(cc21)CCN(CC(N)CF)C3=O (stereo unspecified),≤ 10
4,COC(=O)N(C)CCOc1cccc2cc(-c3nc4cc5c(cc4n3C)CCN(CC(N)CF)C5=O)n(CC3CC3)c12 (stereo unspecified),≤ 10
5,Cn1c(-c2cc3cccc(OCC4CNC(=O)O4)c3n2CC2CC2)nc2cc3c(cc21)CCN(CC(N)CF)C3=O (stereo unspecified),≤ 10
6,Cn1c(-c2cc3cccc(OCCn4cnnn4)c3n2CC2CC2)nc2cc3c(cc21)CCN(CC(N)CF)C3=O (stereo unspecified),≤ 10
